{"source": "patent US12052991B2", "about": "“Substituted pyridinyloxybenzenes and salts thereof and use thereof as herbicidal agents” (Bayer Aktiengesellschaft, priority 2018, dated 2024)", "type_in_all_cases": "in vivo", "key": {"Veronica persica (VERPE) [1]": {"tested_on": "Veronica persica (VERPE)", "test": "Herbicidal post-emergence action (Table B12)", "conditions": "visual rating about 3 weeks after treatment, 100% = plants have died, 0% = like control plants", "outline": "(§1)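 Activity was scored visually against untreated plants roughly 3 weeks after treatment, 0% meaning like control and 100% plant death. Application was post-emergence onto green parts at the one-leaf stage, as aqueous suspension/emulsion with 0.5% additive, 600 l/ha, delivering 1280 or 320 g/ha to greenhouse plants in sandy loam.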"}, "[2]": {"tested_on": "Echinochloa crus-galli (ECHCG)", "test": "Herbicidal pre-emergence action, test C (Table C1)", "conditions": "dosage 1280 g/ha; visual scoring after about 3 weeks; 100% = plants have died, 0% = like control plants", "from_the_text": "(§2) Seeds of mono- and dicotyledonous weed plants were placed in plastic pots in sandy loam soil (doubly sown with one species each of mono- or dicotyledonous weed plants per pot) and covered with soil. The compounds of the invention, formulated in the form of wettable powders (WP) or as emulsion concentrates (EC), were then applied onto the surface of the covering soil as aqueous suspension or emulsion with addition of 0.5% additive at a water application rate of 600 liters per hectare (converted). After the treatment, the pots were placed in a greenhouse and kept under good growth conditions for the test plants. After about 3 weeks, the effect of the preparations was scored visually in comparison with untreated controls as percentages. For example, 100% activity=the plants have died, 0% activity=like control plants. Tables C1 to C12 below show the effects of selected compounds of the general formula (I) according to Table 1 on various harmful plants and an application rate corresponding to 1280 or 320 g/ha, which were obtained by the experimental procedure mentioned above."}, "[3]": {"tested_on": "Abutilon theophrasti (ABUTH)", "test": "Herbicidal pre-emergence action, test C (Table C5)", "conditions": "visual scoring after about 3 weeks, 100% = plants have died, 0% = like control plants", "outline": "(§3)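 Application rates of 1280 or 320 g/ha were delivered as WP or EC formulations in water with 0.5% additive, 600 L/ha, onto soil covering freshly sown seeds in sandy loam. Pots stayed under good greenhouse growth conditions, and efficacy was rated as visual percent after about 3 weeks.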"}, "[4]": {"tested_on": "Matricaria inodora (MATIN)", "test": "Herbicidal pre-emergence action, test C (Table C7)", "conditions": "dosage 1280 g/ha; visual scoring after about 3 weeks; 100% = plants have died, 0% = like control plants", "outline": "as §3"}, "Poa annua (POAAN) [5]": {"tested_on": "Poa annua (POAAN)", "test": "Herbicidal pre-emergence action, test C (Table C3)", "conditions": "visual scoring after about 3 weeks, 100% = plants have died, 0% = like control plants", "outline": "as §3"}, "Stellaria media (STEME) [6]": {"tested_on": "Stellaria media (STEME)", "test": "Herbicidal pre-emergence action, test C (Table C8)", "conditions": "visual scoring after about 3 weeks, 100% = plants have died, 0% = like control plants", "outline": "as §3"}, "[7]": {"tested_on": "Abutilon theophrasti (ABUTH)", "test": "Herbicidal post-emergence action (Table B5)", "conditions": "rated visually after about 3 weeks, 100% = plants have died, 0% = like control plants", "outline": "as §1"}, "[8]": {"tested_on": "Alopecurus myosuroides (ALOMY)", "test": "Herbicidal pre-emergence action, test C (Table C9)", "conditions": "visual scoring after about 3 weeks, 100% = plants have died, 0% = like control plants", "outline": "as §3"}, "[9]": {"tested_on": "Alopecurus myosuroides (ALOMY)", "test": "Herbicidal post-emergence action (Table B9)", "conditions": "rated visually after about 3 weeks, 100% = plants have died, 0% = like control plants", "outline": "as §1"}, "[10]": {"tested_on": "Digitaria sanguinalis (DIGSA)", "test": "Herbicidal post-emergence action (Table B10)", "conditions": "dosage 1280 g/ha; visual rating about 3 weeks after treatment; 100% = plants have died, 0% = like control plants", "outline": "as §1"}, "Bassia scoparia (KCHSC) [11]": {"tested_on": "Bassia scoparia (KCHSC)", "test": "Herbicidal post-emergence action (Table B11)", "conditions": "visual rating about 3 weeks after treatment, 100% = plants have died, 0% = like control plants", "outline": "as §1"}, "[12]": {"tested_on": "Amaranthus retroflexus (AMARE)", "test": "Herbicidal pre-emergence action, test C (Table C6)", "conditions": "visual scoring after about 3 weeks, 100% = plants have died, 0% = like control plants", "outline": "as §3"}, "[13]": {"tested_on": "Echinochloa crus-galli (ECHCG)", "test": "Herbicidal post-emergence action (Table B1)", "conditions": "rated visually after about 3 weeks, 100% = plants have died, 0% = like control plants", "outline": "as §1"}, "Poa annua (POAAN) [14]": {"tested_on": "Poa annua (POAAN)", "test": "Herbicidal post-emergence action (Table B3)", "conditions": "rated visually after about 3 weeks, 100% = plants have died, 0% = like control plants", "outline": "as §1"}, "[15]": {"tested_on": "Digitaria sanguinalis (DIGSA)", "test": "Herbicidal pre-emergence action, test C (Table C10)", "conditions": "dosage 1280 g/ha; visual scoring after about 3 weeks; 100% = plants have died, 0% = like control plants", "outline": "as §3"}, "Veronica persica (VERPE) [16]": {"tested_on": "Veronica persica (VERPE)", "test": "Herbicidal pre-emergence action, test C (Table C12)", "conditions": "dosage 1280 g/ha, visual scoring vs untreated controls", "outline": "as §3"}, "Setaria viridis (SETVI)": {"tested_on": "Setaria viridis (SETVI)", "test": "Herbicidal pre-emergence action, test C (Table C4)", "conditions": "dosage 1280 g/ha; visual scoring after about 3 weeks; 100% = plants have died, 0% = like control plants", "outline": "as §3"}, "Stellaria media (STEME) [17]": {"tested_on": "Stellaria media (STEME)", "test": "Herbicidal post-emergence action (Table B8)", "conditions": "visual rating about 3 weeks after treatment, 100% = plants have died, 0% = like control plants", "outline": "as §1"}, "[18]": {"tested_on": "harmful plants ABUTH, AMARE, ECHCG, LOLRI, MATIN, POAAN, SETVI, STEME, ALOMY, DIGSA, KCHSC and VERPE", "test": "Herbicidal post-emergence action, summary of Tables B1-B12", "conditions": "application rate of 1280 or 320 g of active ingredient per hectare; summary in words", "outline": "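Activity scored by eye roughly 3 weeks post-treatment against untreated plants, from 0% (no effect) to 100% (plants dead). Application rates were 1280 or 320 g/ha, as aqueous WP/EC spray plus 0.5% additive at 600 L/ha, onto one-leaf-stage weeds grown 2–3 weeks in sandy loam.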"}, "Bassia scoparia (KCHSC) [19]": {"tested_on": "Bassia scoparia (KCHSC)", "test": "Herbicidal pre-emergence action, test C (Table C11)", "conditions": "visual scoring vs untreated controls", "from_the_text": "as §2"}, "[20]": {"tested_on": "Amaranthus retroflexus (AMARE)", "test": "Herbicidal post-emergence action (Table B6)", "conditions": "visual rating about 3 weeks after treatment, 100% = plants have died, 0% = like control plants", "outline": "as §1"}, "[21]": {"tested_on": "harmful plants ABUTH, AMARE, ECHCG, LOLRI, MATIN, POAAN, SETVI, STEME, ALOMY, DIGSA, KCHSC and VERPE", "test": "Herbicidal pre-emergence action (test C), summary of Tables C1-C12", "conditions": "application rate of 1280 or 320 g of active ingredient per hectare; summary in words", "outline": "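Visual % damage versus untreated plants (0% = like control, 100% = died) was scored after about 3 weeks in the greenhouse. Before emergence, seeds sown in sandy loam got a soil-surface spray of compound as WP or EC plus 0.5% additive, using 600 L/ha water at rates of 1280 or 320 g/ha.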"}}, "data": [{"smiles": "FC(F)c1cc(-c2ccccc2Oc2ccccn2)on1", "note": "[Example 1-38]", "values": [{"measurement": "Post-emergence action against Veronica persica (VERPE)", "setting": "Veronica persica (VERPE) [1]; dosage 320 g/ha", "result": 100, "unit": "%"}, {"measurement": "Post-emergence action against Veronica persica (VERPE)", "setting": "Veronica persica (VERPE) [1]; dosage 1280 g/ha", "result": 100, "unit": "%"}, {"measurement": "Pre-emergence action against Echinochloa crus-galli (ECHCG)", "setting": "[2]", "result": 100, "unit": "%"}, {"measurement": "Pre-emergence action against Abutilon theophrasti (ABUTH)", "setting": "[3]; dosage 320 g/ha", "result": 100, "unit": "%"}, {"measurement": "Pre-emergence action against Abutilon theophrasti (ABUTH)", "setting": "[3]; dosage 1280 g/ha", "result": 100, "unit": "%"}, {"measurement": "Pre-emergence action against Matricaria inodora (MATIN)", "setting": "[4]", "result": 100, "unit": "%"}, {"measurement": "Pre-emergence action against Poa annua (POAAN)", "setting": "Poa annua (POAAN) [5]; dosage 320 g/ha", "result": 100, "unit": "%"}, {"measurement": "Pre-emergence action against Poa annua (POAAN)", "setting": "Poa annua (POAAN) [5]; dosage 1280 g/ha", "result": 100, "unit": "%"}, {"measurement": "Pre-emergence action against Stellaria media (STEME)", "setting": "Stellaria media (STEME) [6]; dosage 320 g/ha", "result": 100, "unit": "%"}, {"measurement": "Pre-emergence action against Stellaria media (STEME)", "setting": "Stellaria media (STEME) [6]; dosage 1280 g/ha", "result": 100, "unit": "%"}, {"measurement": "Post-emergence action against Abutilon theophrasti (ABUTH)", "setting": "[7]; 320 g/ha", "result": 100, "unit": "%"}, {"measurement": "Post-emergence action against Abutilon theophrasti (ABUTH)", "setting": "[7]; 1280 g/ha", "result": 100, "unit": "%"}, {"measurement": "Pre-emergence action against Alopecurus myosuroides (ALOMY)", "setting": "[8]; dosage 320 g/ha", "result": 90, "unit": "%"}, {"measurement": "Pre-emergence action against Alopecurus myosuroides (ALOMY)", "setting": "[8]; dosage 1280 g/ha", "result": 100, "unit": "%"}, {"measurement": "Post-emergence action against Alopecurus myosuroides (ALOMY)", "setting": "[9]; 320 g/ha", "result": 100, "unit": "%"}, {"measurement": "Post-emergence action against Alopecurus myosuroides (ALOMY)", "setting": "[9]; 1280 g/ha", "result": 100, "unit": "%"}, {"measurement": "Post-emergence action against Digitaria sanguinalis (DIGSA)", "setting": "[10]", "result": 100, "unit": "%"}, {"measurement": "Post-emergence action against Bassia scoparia (KCHSC)", "setting": "Bassia scoparia (KCHSC) [11]; dosage 320 g/ha", "result": 90, "unit": "%"}, {"measurement": "Post-emergence action against Bassia scoparia (KCHSC)", "setting": "Bassia scoparia (KCHSC) [11]; dosage 1280 g/ha", "result": 100, "unit": "%"}, {"measurement": "Pre-emergence action against Amaranthus retroflexus (AMARE)", "setting": "[12]; dosage 320 g/ha", "result": 100, "unit": "%"}, {"measurement": "Pre-emergence action against Amaranthus retroflexus (AMARE)", "setting": "[12]; dosage 1280 g/ha", "result": 100, "unit": "%"}, {"measurement": "Post-emergence action against Echinochloa crus-galli (ECHCG)", "setting": "[13]; 320 g/ha", "result": 90, "unit": "%"}, {"measurement": "Post-emergence action against Echinochloa crus-galli (ECHCG)", "setting": "[13]; 1280 g/ha", "result": 100, "unit": "%"}, {"measurement": "Post-emergence action against Poa annua (POAAN)", "setting": "Poa annua (POAAN) [14]; 320 g/ha", "result": 100, "unit": "%"}, {"measurement": "Post-emergence action against Poa annua (POAAN)", "setting": "Poa annua (POAAN) [14]; 1280 g/ha", "result": 100, "unit": "%"}, {"measurement": "Pre-emergence action against Digitaria sanguinalis (DIGSA)", "setting": "[15]", "result": 100, "unit": "%"}, {"measurement": "Pre-emergence action against Veronica persica (VERPE)", "setting": "Veronica persica (VERPE) [16]", "result": 100, "unit": "%"}, {"measurement": "Pre-emergence action against Setaria viridis (SETVI)", "setting": "Setaria viridis (SETVI)", "result": 100, "unit": "%"}, {"measurement": "Post-emergence action against Stellaria media (STEME)", "setting": "Stellaria media (STEME) [17]; dosage 320 g/ha", "result": 100, "unit": "%"}, {"measurement": "Post-emergence action against Stellaria media (STEME)", "setting": "Stellaria media (STEME) [17]; dosage 1280 g/ha", "result": 100, "unit": "%"}, {"measurement": "herbicidal activity against the harmful plants of Tables B1-B12 in post-emergence treatment", "setting": "[18]", "result": "very good herbicidal activity"}, {"measurement": "Pre-emergence action against Bassia scoparia (KCHSC)", "setting": "Bassia scoparia (KCHSC) [19]; dosage 320 g/ha", "result": 100, "unit": "%"}, {"measurement": "Pre-emergence action against Bassia scoparia (KCHSC)", "setting": "Bassia scoparia (KCHSC) [19]; dosage 1280 g/ha", "result": 100, "unit": "%"}, {"measurement": "Post-emergence action against Amaranthus retroflexus (AMARE)", "setting": "[20]; dosage 320 g/ha", "result": 100, "unit": "%"}, {"measurement": "Post-emergence action against Amaranthus retroflexus (AMARE)", "setting": "[20]; dosage 1280 g/ha", "result": 100, "unit": "%"}, {"measurement": "herbicidal activity against the harmful plants of Tables C1-C12 in pre-emergence treatment", "setting": "[21]", "result": "very good herbicidal activity"}]}]}
